Reference: PubChem BioAssay (NCI)
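Protocol summary: plate cells (96-well), add compound at 5 concentrations, incubate 48 h, interpolate endpoints linearly. The concentration for 50% growth inhibition is given as GI50. The concentration for full growth arrest is given as TGI.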

Assays:
Assay in all cases: growth of human tumour cells (NCI), 48 h
[1] = tested on: UACC-62 melanoma
[2] = tested on: HS 578T breast
[3] = tested on: DU-145 prostate
[4] = tested on: A498 renal
[5] = tested on: HCC-2998 colon
[6] = tested on: UACC-257 melanoma
[7] = tested on: MDA-MB-231 breast
[8] = tested on: HOP-92 NSCLC
[9] = tested on: M14 melanoma
[10] = tested on: RXF 393 renal

Row | Structure (SMILES) | TGI [1] [µM] | TGI [2] [µM] | TGI [3] [µM] | TGI [4] [µM] | TGI [5] [µM] | TGI [6] [µM] | TGI [7] [µM] | TGI [8] [µM] | TGI [9] [µM] | TGI [10] [µM] | GI50 [1] [µM] | GI50 [2] [µM] | GI50 [3] [µM] | GI50 [4] [µM] | GI50 [5] [µM] | GI50 [6] [µM] | GI50 [7] [µM] | GI50 [8] [µM] | GI50 [9] [µM] | GI50 [10] [µM]
1 | O=C(C/C(=N/O)c1cc(-c2ccccc2)no1)c1ccccc1 | > 100 | 66.6 | > 100 | > 100 | > 100 | > 100 | 46.1 | 58 | > 100 | 41.2 | – | – | – | – | – | – | – | – | – | –
2 | O=C(O)CCCc1ccc2ccccc2c1 | > 100 | > 100 | > 100 | > 100 | > 100 | > 100 | > 100 | > 100 | > 100 | > 100 | – | – | – | – | – | – | – | – | – | –
3 | CC(C)(C)c1cc2c(O)c(c1)Cc1cc(C(C)(C)C)cc(c1O)Cc1cc(C(C)(C)C)cc(c1O)Cc1cc(C(C)(C)C)cc(c1O)Cc1cc(C(C)(C)C)cc(c1O)Cc1cc(C(C)(C)C)cc(c1O)Cc1cc(C(C)(C)C)cc(c1O)Cc1cc(C(C)(C)C)cc(c1O)C2 | > 50 | > 50 | > 50 | > 50 | > 50 | > 50 | > 50 | > 50 | > 50 | > 50 | – | – | – | – | – | – | – | – | – | –
4 | O=C(CCCl)NNC1=NCCCN1 | > 100 | > 100 | > 100 | > 100 | > 100 | > 100 | > 100 | > 100 | > 100 | > 100 | – | – | – | – | – | – | – | – | – | –
5 | CN1CCC2(CC1)C(=NC1CCCCC1)NC(=S)N2c1ccccc1 | > 100 | 88.3 | > 100 | > 100 | > 100 | > 100 | > 100 | > 100 | > 100 | > 100 | – | – | – | – | – | – | – | – | – | –
6 | CCN(CC)CCNc1ccc2nnn3c4ccc(O)cc4c(=O)c1c23 | 22.1 | 26.6 | 27.6 | 16 | 15.4 | 24.9 | 18.2 | 18.2 | 20.1 | 5.96 | – | – | – | – | – | – | – | – | – | –
7 | COc1ccc2nc3ccc(OC)cc3c(SCc3ccccc3)c2c1 | > 100 | > 100 | > 100 | > 100 | > 100 | > 100 | > 100 | > 100 | > 50 | > 100 | – | – | – | – | – | – | – | – | – | –
8 | COC(=O)[C@H](Cc1ccc(OC(C)(C)C)cc1)N[C@H](C)C(=O)N[C@@H](Cc1ccccc1)C(=O)OCc1ccccc1 | > 100 | > 100 | > 100 | > 100 | > 100 | > 100 | > 100 | > 100 | > 100 | > 100 | – | – | – | – | – | – | – | – | – | –
9 | O=C(CSc1nc2ccc(I)cc2c(=O)n1Cc1ccccc1)NNC(=O)c1ccccc1 | > 100 | 9.4 | 45.9 | 25.7 | > 100 | 57.2 | 28.2 | 28.2 | > 100 | 17.5 | – | – | – | – | – | – | – | – | – | –
10 | C[C@@H](NC(=O)c1ccc(CNC(=O)/C=C/c2cccc(Oc3ccccc3)c2)cc1)c1ccccc1 | > 100 | 33.4 | > 100 | > 90.4 | > 100 | > 100 | > 100 | > 100 | > 100 | 12.2 | – | – | – | – | – | – | – | – | – | –
11 | CCOC(=O)c1[nH]cc(C)c1-c1ccc2c(-c3ccccc3)nc3ccccc3n12 | 10.8 | 6.5 | 13.4 | 9.98 | 9.97 | 24.7 | 12.8 | 14 | 27.5 | 7.22 | – | – | – | – | – | – | – | – | – | –
12 | CCOC(=O)C(=O)/C(=C/N1C(=O)CC(=O)NC1=S)C(=O)OCC | > 100 | > 100 | > 100 | > 100 | > 100 | > 100 | > 100 | > 92.9 | > 100 | > 100 | – | – | – | – | – | – | – | – | – | –
13 | CCOP(=O)(OCC)/C(C#N)=C/c1cnc[nH]1 | > 100 | > 100 | > 100 | > 100 | > 100 | > 100 | > 100 | > 100 | > 100 | > 100 | – | – | – | – | – | – | – | – | – | –
14 | O=C1C=C(OCCCCl)C(=O)c2c(O)ccc(O)c21 | 0.882 | 6.56 | 0.863 | 3.57 | 3.37 | 0.358 | 3.39 | 2.89 | 0.341 | 3.09 | – | – | – | – | – | – | – | – | – | –
15 | COC(=O)C1=C(C(=O)OC)SC2(S1)C(C(=O)OC)=C(C(=O)OC)Sc1c2ssc1=Nc1ccc(Cl)cc1 | 2.42 | > 100 | 1.65 | 3.15 | 1.02 | 2.3 | 2.17 | 1.93 | 2.79 | 0.894 | – | – | – | – | – | – | – | – | – | –
16 | O=c1[nH]c(=O)n(C2OC(CO)C(O)C2O)cc1Oc1ccccc1 (stereo not given) | > 100 | > 100 | > 100 | > 100 | > 100 | > 100 | > 100 | > 100 | > 100 | > 100 | – | – | – | – | – | – | – | – | – | –

Row | Structure (SMILES) | TGI [1] [µM] | TGI [2] [µM] | TGI [3] [µM] | TGI [4] [µM] | TGI [5] [µM] | TGI [6] [µM] | TGI [7] [µM] | TGI [8] [µM] | TGI [9] [µM] | TGI [10] [µM] | GI50 [1] [µM] | GI50 [2] [µM] | GI50 [3] [µM] | GI50 [4] [µM] | GI50 [5] [µM] | GI50 [6] [µM] | GI50 [7] [µM] | GI50 [8] [µM] | GI50 [9] [µM] | GI50 [10] [µM]
17 | O=c1c2cc(Cl)cc(Cl)c2oc2nc3n(c(=O)c12)CCCS3 | > 100 | > 100 | > 100 | > 100 | > 100 | > 100 | > 100 | > 100 | > 100 | > 100 | – | – | – | – | – | – | – | – | – | –
18 | Fc1ccc(-c2sc(-c3cccs3)cc2Cc2cccs2)cc1 | > 100 | > 100 | > 100 | > 100 | > 100 | > 100 | > 100 | > 100 | > 100 | > 100 | – | – | – | – | – | – | – | – | – | –
19 | COc1cc(-c2[o+]c3cc(O)cc(O)c3cc2O)cc(O)c1O | > 100 | > 100 | > 100 | > 100 | > 100 | > 100 | > 100 | > 100 | > 100 | > 100 | – | – | – | – | – | – | – | – | – | –
20 | c1ccc2c(c1)CCc1[nH]c3c(c1-2)-c1ccccc1CC3 | > 100 | > 100 | > 100 | > 100 | > 100 | > 100 | > 100 | > 100 | > 100 | > 100 | – | – | – | – | – | – | – | – | – | –
21 | CCN(CC)Cc1c(/C=C\c2cc(OC)c(OC)c(OC)c2)ccc(OC)c1O | 27.7 | 6.22 | 39.7 | 17.4 | 20.4 | > 100 | > 100 | > 100 | > 59.1 | 9.35 | – | – | – | – | – | – | – | – | – | –
22 | CSc1ncc2c(n1)sc1c(=O)n(-c3ccccc3)cnc12 | > 100 | > 100 | > 100 | > 100 | > 100 | > 100 | > 100 | > 100 | > 100 | > 100 | – | – | – | – | – | – | – | – | – | –
23 | Cc1ccc2nc(C=Nc3ccc(Cl)cc3)cc(C)c2c1 | 40 | > 69.4 | > 100 | > 100 | 6.62 | 36.5 | 27.3 | 81 | 21.1 | 62.3 | – | – | – | – | – | – | – | – | – | –
24 | FC(F)(Sc1ncc[nH]1)c1nc2ccccc2o1 | > 100 | > 100 | > 100 | > 100 | > 100 | > 100 | > 100 | > 100 | > 100 | > 100 | – | – | – | – | – | – | – | – | – | –
25 | O=C1C=CC(=O)c2c1ccc1c3ccccc3n(Cc3cccc([N+](=O)[O-])c3)c21 | > 78.6 | > 100 | > 100 | > 100 | > 100 | 60.1 | 61.1 | 43.7 | 71.7 | 39.2 | – | – | – | – | – | – | – | – | – | –
26 | Cc1nnc(N)nc1/C=C/c1c(O)ccc2ccccc12 | 85 | 85 | > 100 | 47.1 | 45.2 | > 100 | > 100 | 86.9 | 44.1 | 36.2 | – | – | – | – | – | – | – | – | – | –
27 | c1ccc2c(c1)NC1(N3CCCCC3)CCCCC21 (stereo not given) | > 100 | > 100 | > 100 | 98 | > 100 | > 100 | > 100 | 84 | > 100 | 80.2 | – | – | – | – | – | – | – | – | – | –
28 | COc1cccc(N(CN2C(=O)CCC2C(=O)O)C(C)=O)c1 (stereo not given) | > 100 | > 100 | > 100 | > 100 | > 100 | > 100 | > 100 | > 100 | > 100 | > 100 | – | – | – | – | – | – | – | – | – | –
29 | CN1CCN(Cc2ccc(NC(=O)c3cccc(C#Cc4cnc(N)c5ncccc45)c3F)cc2C(F)(F)F)CC1 | 13.1 | 8.66 | 1.41 | 4.61 | 1.6 | 1.65 | 1.75 | 4.63 | 1.37 | 1.3 | 2.84 | 1.29 | 0.614 | 1.59 | 0.834 | 0.828 | 0.773 | 1.27 | 0.59 | 0.613
30 | CCOc1cc2oc(C)cc(=O)c2c(OC)c1C=Nc1ccc(Cn2c(C)nc3ccccc32)cc1 | > 100 | > 100 | > 100 | > 100 | > 100 | > 100 | > 100 | > 100 | > 100 | > 100 | – | – | – | – | – | – | – | – | – | –
31 | CCOC(=O)C(NC(=O)c1ccccc1)(Nc1ccc(Cl)cc1C(F)(F)F)C(F)(F)F (stereo not given) | 27.4 | > 100 | > 100 | 47.1 | > 79.4 | > 100 | 77.2 | 50.7 | 28 | 24.7 | – | – | – | – | – | – | – | – | – | –
32 | COC(=O)[C@H](CC(C)C)Nc1c(O)c2c(c(O)c1Cl)C(=O)C=CC2=O | > 10 | > 10 | > 10 | > 10 | > 10 | > 10 | > 10 | > 10 | > 10 | > 10 | – | – | – | – | – | – | – | – | – | –
